{"source": "patent US11278526B2", "about": "“Compounds and methods for treating lupus” (RECEPTOS LLC, priority 2016, dated 2022)", "biological_target": "T1, S1P1R (Mus musculus, UniProt O08530)", "T1 construct": "from tissue; host or cells: spleen", "T1 sequence (O08530 whole entry)": "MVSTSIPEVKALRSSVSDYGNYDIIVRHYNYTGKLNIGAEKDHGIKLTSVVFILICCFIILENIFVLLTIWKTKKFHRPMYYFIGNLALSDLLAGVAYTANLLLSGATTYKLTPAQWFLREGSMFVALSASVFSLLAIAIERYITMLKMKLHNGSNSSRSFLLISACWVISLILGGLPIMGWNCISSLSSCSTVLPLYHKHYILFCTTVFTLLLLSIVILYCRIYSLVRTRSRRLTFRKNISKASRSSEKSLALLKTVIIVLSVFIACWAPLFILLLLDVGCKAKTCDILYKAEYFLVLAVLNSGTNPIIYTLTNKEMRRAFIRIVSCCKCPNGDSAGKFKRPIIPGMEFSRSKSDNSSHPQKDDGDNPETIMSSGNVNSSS", "test": "S1P1R cell surface expression on splenic CD4+ T cells by flow cytometry", "type": "in vivo", "details": "NZBWF1 mice, splenocytes at termination; 0.3, 1.0, 3.0 mg/kg PO QD", "from_the_text": "S1P1R is expressed on T and B lymphocytes and is the target for modulation by compound 5. Following agonism of the receptor by compound 5, the receptor is internalized and degraded. To determine whether internalization is occurring in T cells following compound dosing in vivo, both naïve and activated CD4+ T cells were examined for cell surface expression of S1P1R. At termination, spleens were harvested and splenocytes isolated and analyzed for immune cell populations by antibody staining and flow cytometry. S1P1R expression was measured on both activated CD4+ T cells (CD3+CD4+CD44+CD62L−) and naïve T cells (CD3+CD4+CD44−CD62L+)."}
{"smiles": "CC(C)Oc1ccc(-c2nc(-c3cccc4c3CC[C@@H]4NCCO)no2)cc1C#N", "note": "[compound 5, (S)-5-(3-(1-(2-hydroxyethylamino)-2,3-dihydro-1H-inden-4-yl)-1,2,4-oxadiazol-5-yl)-2-isopropoxy benzonitrile]", "values": [{"measurement": "S1P1R expression on activated CD4+ T cells (CD3+CD4+CD44+CD62L−)", "value": "reduced in a dose-dependent manner"}, {"measurement": "S1P1R expression on naïve CD4+ T cells (CD3+CD4+CD44−CD62L+)", "value": "reduced in a dose-dependent manner"}]}
